The values below come from article PMC4177882, “Inactivation and Unfolding of Protein Tyrosine Phosphatase from Thermus thermophilus HB27 during Urea and Guanidine Hydrochloride Denaturation” (PLoS ONE, 2014).

The target of the experiment is T1, protein tyrosine phosphatase (PTPase) from Thermus thermophilus HB27 (Thermus thermophilus, UniProt Q72JF6).
T1 construct: gene TT_C0816; recombinant, expressed in E. coli BL21(DE3), purified to homogeneity; low molecular weight PTPase, CX5R(S/T) P-loop with Cys11; monomer in solution
T1 sequence (Q72JF6 entry or part of it): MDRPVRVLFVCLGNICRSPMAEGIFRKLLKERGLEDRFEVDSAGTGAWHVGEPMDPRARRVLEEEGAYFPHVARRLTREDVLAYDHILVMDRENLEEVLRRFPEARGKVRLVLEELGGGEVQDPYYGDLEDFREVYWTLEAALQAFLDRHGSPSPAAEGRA
In words: phosphatase activity, absorbance at […] nm. The format is biochemical.

Structures can show the parent of a compound that is named as a salt.

The compound `N=C(N)N` [guanidine hydrochloride] returned an inhibitory constant (Ki) of 270 µM.

The Ki is the equilibrium dissociation constant of an inhibitor or competing ligand from its target. A high value points to weaker binding.
